The target of one test is Mcl-1 protein (Homo sapiens, UniProt Q07820). The test can be described thus: Inhibition of Mcl-1 activity by fluorescence polarization (FP) competition with a fluorescein-labeled ligand. The test is classed as binding. The note with it: 10 nM Mcl-1 protein, 10 nM labeled ligand, 2 hours at room temperature. (In general: Fluorescence polarisation rises when a labelled molecule tumbles more slowly, as on binding a larger partner.)

The subject of test [1] is Multiple myeloma tumor cells (H929). The experiment in a line: In vitro cytotoxicity, MTT assay, 48 hours exposure. The note with it: Homo sapiens, NCI-H929, MTT cell viability. The format is cell-based. As to the method:
Multiple myeloma tumor cells (H929) were used for toxicity studies, and the cells were distributed in microtiter plates and exposed to the compounds tested for 48 hours.

The source of these data is patent publication US10919908B2, “Thienopyrimidinone derivative and application thereof in preparing anticancer drug” (Henan Genuine Biotech Co., Ltd., priority 2017, dated 2021).

Mcl-1 protein, sequence (Q07820 whole entry): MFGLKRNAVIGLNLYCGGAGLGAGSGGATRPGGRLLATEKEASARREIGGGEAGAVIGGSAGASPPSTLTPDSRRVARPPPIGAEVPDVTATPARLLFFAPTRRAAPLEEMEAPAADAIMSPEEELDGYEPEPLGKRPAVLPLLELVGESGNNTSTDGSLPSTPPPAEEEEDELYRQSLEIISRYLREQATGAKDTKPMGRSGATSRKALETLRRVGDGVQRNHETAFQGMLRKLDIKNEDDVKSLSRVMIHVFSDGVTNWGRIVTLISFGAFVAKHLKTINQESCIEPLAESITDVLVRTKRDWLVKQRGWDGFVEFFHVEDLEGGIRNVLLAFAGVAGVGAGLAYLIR

The term IC50 denotes the concentration at which inhibition is half-maximal. Higher therefore signals lower potency. For `Cc1c(-c2c(-c3ccc(F)o3)sc3ncnc(O[C@@H](C(=O)O)C(F)(F)c4ccccc4OCc4ccnn4CC(F)(F)F)c23)ccc(OCCN2CCN(C)CC2)c1Cl` [Compound 102], the IC50 was less than 1 nM on Mcl-1 protein and greater than 10 nM in test [1].

As to `Cc1c(-c2c(-c3ccc(F)o3)sc3ncnc(O[C@H](C(=O)O)C(F)(F)c4ccccc4OCc4ccnn4CC(F)(F)F)c23)ccc(OCCN2CCN(C)CC2)c1Cl` [Compound 103], the IC50 is 1 to 10 nM at Mcl-1 protein and greater than 10 nM in test [1].

In test [1], `Cc1c(-c2c(-c3ccc(F)o3)sc3ncnc(O[C@H](Cc4ccccc4OCc4ccnn4CC(F)(F)F)C(=O)O)c23)ccc(OCCN2CCN(C)CC2)c1Cl` [II, reference compound] returned an IC50 greater than 10 nM.
